# Assay results: article PMC7773887 (Computational and Structural Biotechnology Journal, 2020)
# Key:
# [1] = target: CMY-10 (Klebsiella aerogenes, UniProt Q99QC1); assay: nitrocefin hydrolysis assay at […] inhibitor; assay type: biochemical; conditions: read-out: % inhibition at 200 μM
# [2] = target: AmpC BER (Escherichia coli, UniProt A7TUE6); assay: nitrocefin hydrolysis steady-state kinetics, Lineweaver-Burk; assay type: biochemical
# Chain of AmpC BER (A7TUE6 20-379): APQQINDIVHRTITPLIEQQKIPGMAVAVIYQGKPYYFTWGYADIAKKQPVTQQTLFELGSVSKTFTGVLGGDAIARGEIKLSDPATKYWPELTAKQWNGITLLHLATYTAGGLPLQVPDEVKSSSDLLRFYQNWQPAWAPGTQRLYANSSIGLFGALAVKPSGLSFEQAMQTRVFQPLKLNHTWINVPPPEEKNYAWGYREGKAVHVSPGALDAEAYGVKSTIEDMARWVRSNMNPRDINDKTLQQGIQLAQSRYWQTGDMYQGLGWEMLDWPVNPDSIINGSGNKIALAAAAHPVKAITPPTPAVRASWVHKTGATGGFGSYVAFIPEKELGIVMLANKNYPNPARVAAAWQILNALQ
# Chain of CMY-10 (Q99QC1 24-382): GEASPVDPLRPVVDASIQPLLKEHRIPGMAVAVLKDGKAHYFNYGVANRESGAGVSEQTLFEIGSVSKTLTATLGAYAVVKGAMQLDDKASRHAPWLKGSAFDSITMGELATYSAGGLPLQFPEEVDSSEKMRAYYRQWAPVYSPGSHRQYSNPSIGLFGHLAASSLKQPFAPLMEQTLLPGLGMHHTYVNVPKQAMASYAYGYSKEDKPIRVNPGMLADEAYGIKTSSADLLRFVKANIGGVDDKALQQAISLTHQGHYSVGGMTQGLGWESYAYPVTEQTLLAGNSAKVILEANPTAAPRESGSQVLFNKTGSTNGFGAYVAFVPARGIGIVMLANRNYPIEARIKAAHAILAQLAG
smiles,measurement,setting,value
"C=C1CCC[C@@H]2[C@@](C)(CCC(CCCc3ccoc3)COS(=O)(=O)O)[C@H](C)CC[C@]12C (some centres unmarked) [Hali 5, halisulfate 5]",inhibition at 200 µM,[1],~90%
same,Ki,[2],5.87 µM
